Here are results for four compounds from patent US20260345543A1, “Bridged Bicyclic Compounds and their Derivatives as Antiepileptic Agents and Methods of Use Thereof” (Florida Atlantic University Board of Trustees, priority 2022, published 2026).

The subject of test [1] is C. elegans (N2 worms). Briefly: C. elegans electroshock seizure assay (recovery time; with or without PTZ). To be noted: 3 mM (3000 μM); with PTZ; control AED. The test is classed as in vivo. The source says:
FIG. 2 is a graph showing recovery time (seconds) for N2 worms (vertical axis) in the presence of M9 or pentylenetetrazol (PTZ) (first two bars). In other experiments, PTZ is combined with either an RVM or sodium valproate.
FIG. 3 left is the structure of RVM-3, and FIG. 3 right is a graph showing recovery time (seconds) for N2 worms (vertical axis) in the presence of M9 or PTZ (first two bars). In other experiments, PTZ is combined with RVM-3 at varying concentrations or sodium valproate.
The structures of these RVMs are comprised of an all-carbon bridged bicyclic scaffold that is fully saturated, a motif that is without precedent in the AED literature. […] It is expected that a pharmacological intervention based on RVMs will provide relief from epileptic events at low dosages.
The C. elegans seizure assay includes placing L4 C. elegans into a small tube that is capped on both sides by copper wires. A shock of 47 V for three seconds is then administered. […] Recovery is recorded when the animals present with coordinated three sinusoidal movements, which is then characterized as normal swimming activity. […]
This C. elegans assay offers a new model for the evaluation of electroconvulsive seizures (FIG. 4). […] Recovery is recorded when the animals present with three sinusoidal movements, which is then characterized as normal swimming activity. […]

For test [2], the system named is unc-25 and unc-49 loss of function mutant C. elegans. To be noted: unc-25 and unc-49 mutants; concentration not given; cited from earlier work.
Test [3] relates to C. elegans (N2 worms). The following applies: effect of PTZ application; concentration not given; cited from earlier work.

Structures are written as SMILES.

For the compound `CCCC(CCC)C(=O)[O-].[Na+]` [Sodium valproate, sodium valproate], in the test on C. elegans (N2 worms) [1], the “restoration of recovery time” value is “relatively modest restoration of recovery time”. Moreover, the “sensitivity to electroshock when mutants are treated with antiepileptic drugs” value (“sensitivity … with antiepileptic drugs” for short) in test [2] is reported as “increased sensitivity is rescued”. As for `C1CCc2nnnn2CC1` [PTZ, Pentylenetetrazole], the “seizure-like phenotypes seen in C. elegans” value in the test on C. elegans (N2 worms) [3] is on record as “enhances the seizure-like phenotypes”. In test [2], the “sensitivity to electroshock when mutants are additionally treated with PTZ” value is given as “sensitivity to electroshock is increased”. On to `CC[C@@H](C(N)=O)N1CCCC1=O` [Keppra, levetiracetam], for which the “sensitivity … with antiepileptic drugs” value in test [2] is listed as “increased sensitivity is rescued”. Regarding `CCOC(=O)Nc1ccc(NCc2ccc(F)cc2)cc1N` [Retigabine], in test [2], the “sensitivity … with antiepileptic drugs” value was “increased sensitivity is rescued”.
